Entries after “also recorded” stand apart in the source; their conditions may differ.
Columns and labels:
CCRF-CEM lymphoblasts [1] = assay: Phospho-histone H3 (Ser10) mitotic marker, flow cytometry; type: cell-based, human
Procedure, shortened: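 Mitotic fraction scored by flow cytometry (488 nm) using Ser10-phosphorylated histone H3 antibody plus propidium iodide DNA stain, following RNase. CCRF-CEM lymphoblasts had 24 h compound exposure before ethanol fixation and Triton X-100 permeabilisation; events below G1 DNA content classed as fragmented-DNA, non-viable cells.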

[2] = MTS cytotoxicity assay, MRC-5; type: cell-based; settings: human, MRC-5 cells (non-tumour fibroblasts); MTS assay, 72-h incubation, mean ± SD of 3 independent experiments; read-out: IC50 cytotoxic activity MRC-5
Procedure, shortened: (§1)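 Cells kept in recommended medium with 10% foetal calf serum and penicillin/streptomycin at 37 °C, 5% CO2, seeded overnight, then exposed to fourfold serial DMSO dilutions of compound for 72 h. Viability was read with MTS reagent; technical duplicates, three biological replicates.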

porcine brain tubulin = target: T1, porcine brain tubulin (Sus scrofa, UniProt P02550+P02554); assay: Tubulin polymerisation assay; type: biochemical; settings: for inhibitory activity against tubulin polymerisation (in words): 10 μmol/L, Vmax relative to DMSO; for IC50: dose-response, mean ± SD of two independent experiments, read-out: IC50 inhibition of tubulin assembly; for inhibition at 10 µM: read-out: Tubulin polymerisation inhibition
T1 construct: purchased Cytoskeleton, Denver, CO; host or cells: porcine brain (tissue-purified)
T1 sequence (P02550 whole entry): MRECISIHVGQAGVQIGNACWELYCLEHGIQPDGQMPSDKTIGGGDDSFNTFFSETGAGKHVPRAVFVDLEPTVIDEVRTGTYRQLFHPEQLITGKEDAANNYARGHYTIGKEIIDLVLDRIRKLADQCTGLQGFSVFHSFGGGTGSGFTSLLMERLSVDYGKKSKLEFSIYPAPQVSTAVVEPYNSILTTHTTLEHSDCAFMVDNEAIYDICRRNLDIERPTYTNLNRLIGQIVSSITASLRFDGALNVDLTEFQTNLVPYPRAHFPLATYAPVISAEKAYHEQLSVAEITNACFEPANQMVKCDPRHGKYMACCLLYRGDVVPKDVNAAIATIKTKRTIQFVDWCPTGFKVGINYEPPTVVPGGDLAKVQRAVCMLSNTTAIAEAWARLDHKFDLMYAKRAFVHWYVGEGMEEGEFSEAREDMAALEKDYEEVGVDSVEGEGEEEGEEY
T1 sequence (P02554 whole entry): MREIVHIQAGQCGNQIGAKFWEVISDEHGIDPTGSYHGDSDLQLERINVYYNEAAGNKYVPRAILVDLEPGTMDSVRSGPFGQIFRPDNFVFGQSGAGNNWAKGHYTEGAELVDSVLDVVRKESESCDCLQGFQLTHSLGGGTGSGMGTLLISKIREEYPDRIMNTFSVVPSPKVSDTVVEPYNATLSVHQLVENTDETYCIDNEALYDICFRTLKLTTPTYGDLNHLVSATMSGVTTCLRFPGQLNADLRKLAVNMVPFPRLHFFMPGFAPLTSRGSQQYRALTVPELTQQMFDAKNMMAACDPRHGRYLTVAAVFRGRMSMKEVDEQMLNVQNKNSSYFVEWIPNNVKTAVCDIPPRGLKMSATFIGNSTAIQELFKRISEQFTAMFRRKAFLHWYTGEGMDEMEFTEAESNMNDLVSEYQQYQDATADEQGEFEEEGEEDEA
Procedure, shortened: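 Test compounds (10 μmol/L) or DMSO vehicle added to >99% pure porcine brain tubulin. Polymerisation read at 37 °C on a plate reader, and Vmax taken from each curve.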

U2OS cells = assay: Immunofluorescence of microtubules / mitotic spindle; type: cell-based, human; settings: 10 µM, 24-h incubation
Description: In addition, the presence of aster-like tubulin structures indicated the failure in microtubule elongation (Figure 4, ED5). […] The observed intracellular effects of ED3 and ED5 are consistent with data from in vitro assembly assays and cell cycle analyses, thereby strongly supporting the proposed antimitotic mechanisms of these EDs. […] Importantly, cytotoxic IC50 values may vary depending on the duration of exposure to the drug. A more extended exposure could lead to a decrease in the IC50 value, and vice versa. This temporal factor could also contribute to the observed differential sensitivity among the cell lines. The detailed mechanism and the extent to which these cellular and molecular dynamics (MD) contribute to the observed phenomenon might necessitate further investigation and experimentation.
U2OS cells, cultivated on coverslips, underwent a PBS wash and were then fixed in a solution of 3% paraformaldehyde in a buffer containing 10 mM MES, 150 mM NaCl, 5 mM EGTA, 5 mM MgCl2, 5 mM glucose, adjusted to a pH of 6.1. The nuclei were made visible using Hoechst 33342. Subsequently, a 60-min blocking step with 5% goat serum in PBS (SpinChem, Seattle, WA) was followed by a 60-min incubation with α-tubulin (DM1A) mouse monoclonal antibody (Cell Signaling, Danvers, MA) in PBS supplemented with 1% BSA and 0.3% Triton X-100. Visualisation was achieved using Alexa Fluor-488 conjugated anti-mouse antibodies (Life Technologies, Carlsbad, CA). Between each step, the samples underwent a series of three 5-min washes with PBS. Finally, the samples were mounted using Vectashield Mounting Medium with DAPI and imaged utilising a Zeiss spinning disk confocal microscope equipped with CSU-X1 unit (Yokogawa, Musashino, Japan)[10].

[3] = tested on: HCT116p53−/− (p53 gene null variant of HCT116); assay: MTS cytotoxicity assay, HCT116p53−/−; type: cell-based; settings: Homo sapiens, HCT-116; MTS assay, 72-h incubation, mean ± SD of 3 independent experiments; read-out: IC50 cytotoxic activity HCT116p53-
Procedure, shortened: as §1

[4] = tested on: CCRF-CEM (childhood T-cell acute lymphoblastic leukaemia); assay: MTS cytotoxicity assay, CCRF-CEM; type: cell-based; settings: Homo sapiens, MTS assay, 72-h incubation, mean ± SD of 3 independent experiments, read-out: IC50 cytotoxic activity CCRF-CEM
Procedure, shortened: as §1

CCRF-CEM lymphoblasts [5] = assay: Cell cycle analysis by flow cytometry (propidium iodide); type: cell-based, human
Procedure, shortened: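 CCRF-CEM cells treated 24 h, then fixed in cold 70% ethanol, permeabilised with 0.25% Triton X-100 and stained with anti-phospho-histone H3 (Ser10). After 50 μg/mL RNase and propidium iodide, analysed by flow cytometry at 488 nm; sub-G1 events counted as non-viable with fragmented DNA.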

[6] = tested on: K562 (chronic myelogenous leukaemia); assay: MTS cytotoxicity assay, K562; type: cell-based; settings: Homo sapiens, K562; MTS assay, 72-h incubation, mean ± SD of 3 independent experiments; read-out: IC50 cytotoxic activity K562
Procedure, shortened: as §1

Compound	pH3Ser10, % of positive cells (CCRF-CEM lymphoblasts [1]; 1×IC50, 24 h) [%]	pH3Ser10, % of positive cells (CCRF-CEM lymphoblasts [1]; 5×IC50, 24 h) [%]	IC50 at 72 h [2] [nM]	inhibitory activity against tubulin polymerisation (in words) (porcine brain tubulin)	IC50 (porcine brain tubulin) [nM]	inhibition at 10 µM (porcine brain tubulin) [%]	microtubule organisation in mitotic cells (in words) (U2OS cells)	IC50 [3] [nM]	IC50 [4] [nM]	<G1 (sub-G1, fragmented DNA), % of positive cells (CCRF-CEM lymphoblasts [5]; 1×IC50, 24 h) [%]	>G2/M (polyploidy), % of positive cells (CCRF-CEM lymphoblasts [5]; 1×IC50, 24 h) [%]	G0/G1, % of positive cells (CCRF-CEM lymphoblasts [5]; 1×IC50, 24 h) [%]	G2/M, % of positive cells (CCRF-CEM lymphoblasts [5]; 1×IC50, 24 h) [%]	S, % of positive cells (CCRF-CEM lymphoblasts [5]; 1×IC50, 24 h) [%]	<G1 (sub-G1, fragmented DNA), % of positive cells (CCRF-CEM lymphoblasts [5]; 5×IC50, 24 h) [%]	>G2/M (polyploidy), % of positive cells (CCRF-CEM lymphoblasts [5]; 5×IC50, 24 h) [%]	G0/G1, % of positive cells (CCRF-CEM lymphoblasts [5]; 5×IC50, 24 h) [%]	G2/M, % of positive cells (CCRF-CEM lymphoblasts [5]; 5×IC50, 24 h) [%]	S, % of positive cells (CCRF-CEM lymphoblasts [5]; 5×IC50, 24 h) [%]	IC50 [6] [nM]	also measured
COc1cc(Cn2cc([C@]3(O)CC[C@H]4[C@@H]5CCc6cc(O)ccc6[C@H]5CC[C@@]43C)nn2)cc(Cn2cc([C@]3(O)CC[C@H]4[C@@H]5CCc6cc(O)ccc6[C@H]5CC[C@@]43C)nn2)c1 [ED3, (17β,17′β)-17,17′-[(5-Methoxybenzene-1,3-diyl)bis(methanediyl-1H-1,2,3-triazole-1,4-diyl)]bisestra-1,3,5(10)-triene-3,17-diol]	1.43	0.77	> 50000	comparable or better inhibitory activity	2240 ± 1540	31.6	disruption in microtubule organisation	450 ± 39	380 ± 19	33.51	10.23	6.68	70.65	22.67	53.18	9.8	6.89	71.67	21.44	330 ± 74	mitosis-specific phosphorylation of histone H3 (in words) (CCRF-CEM lymphoblasts [1]; 1× and 5×IC50, 24 h): did not induce an increase of mitosis-specific phosphorylation of histone H3
C[C@]12CC[C@@H]3c4ccc(O)cc4CC[C@H]3[C@@H]1CC[C@@]2(O)c1cn(Cc2cccc(Cn3cc([C@]4(O)CC[C@H]5[C@@H]6CCc7cc(O)ccc7[C@H]6CC[C@@]54C)nn3)n2)nn1 [ED, reference compound]	8.08	48.71	1160 ± 250	–	2180 ± 1800	55.6	disruption in microtubule organisation	900 ± 320	490 ± 220	11.51	11.2	33.48	25.59	40.93	22.78	23.1	2.50	59.11	38.39	580 ± 230	–
C[C@]12CC[C@@H]3c4ccc(O)cc4CC[C@H]3[C@@H]1CC[C@@]2(O)c1cn(Cc2cc(Cn3cc([C@]4(O)CC[C@H]5[C@@H]6CCc7cc(O)ccc7[C@H]6CC[C@@]54C)nn3)cc(OCCO)c2)nn1 [ED5, (17β,17′β)-17,17′-{[5-(2-Hydroxyethoxy)benzene-1,3-diyl]bis(methanediyl-1H-1,2,3-triazole-1,4-diyl)}bisestra-1,3,5(10)-triene-3,17-diol]	6.27	0.34	> 50000	comparable or better inhibitory activity; also recorded: most potent inhibitor of in vitro tubulin polymerisation	2010 ± 210	70.2	disruption in microtubule organisation	1980 ± 170	710 ± 40	29.35	6.16	35.53	26.90	37.57	36.87	10.73	13.42	61.48	25.09	420 ± 44	–

— publication PMC467089, “Click estradiol dimers with novel aromatic bridging units: synthesis and anticancer evaluation” (Journal of Enzyme Inhibition and Medicinal Chemistry, 2024)
